In patent publication US11566057B2, “Long-acting co-agonists of the glucagon and GLP-1 receptors” (Merck Sharp & Dohme Corp., priority 2017, dated 2023):
Like-named read-outs stand apart in the source and are kept apart here. Numbered stars: 1 amine (or outer) side, 2 acyl side, 3 side chain; on linkers, the order of the positions; unused ones are H or OH. Square brackets hold non-standard residues; d marks the D form. Side chains are listed from the residue outwards. Peptide text beside a SMILES is read from it. * marks the point of attachment. Phe(4-CH2NH2) = NCc1ccc(C[C@H](N)C(=O)O)cc1; C18 diacid = O=C(O)CCCCCCCCCCCCCCCCC(=O)*; C16 diacid = O=C(O)CCCCCCCCCCCCCCC(=O)*; γGlu = O=C(O)[C@H](CCC(=O)[*:2])N[*:1]; Met(O2) = CS(=O)(=O)CC[C@H](N)C(=O)O; αMeD = C[C@](N)(CC(=O)O)C(=O)O; AEEA = NCCOCCOCC(=O)O; Aib = CC(C)(N)C(=O)O

Legend:
[1] = target: T1, human GLP1R (Homo sapiens, UniProt P43220); test: cAMP activity assay at the GLP-1 receptor (GLP1R); format: cell-based
T1 construct: expressed in transfected cells; growth medium holds Blasticidin and Hygromycin
Procedure, shortened: (§1)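 Peptides serially diluted from DMSO (10 points) and added to frozen-stock cells bearing human GLP1R (10,000 cells/well) or GCGR (30,000 cells/well), 1 h at RT, dark. EC50 by four-parameter logistic fit of HitHunter cAMPXS luminescence, read following overnight RT incubation.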

[2] = target: T2, human GCGR (Homo sapiens, UniProt P47871); test: cAMP activity assay at the Glucagon receptor (GCGR); format: cell-based; conditions: for hGCGR/hGLP1R (hTone): ratio of GCGR EC50 to GLP1R EC50
T2 construct: expressed in transfected cells; growth medium holds Blasticidin and Hygromycin
Procedure, shortened: as §1

[3] = summary statement: EC50 at each of the glucagon and GLP-1 receptors, read-out: EC50 at the GLP-1 receptor
[4] = summary statement: EC50 at each of the glucagon and GLP-1 receptors, read-out: EC50 at the glucagon receptor
[5] = cells expressing human GLP1R, cAMP production, buffer with or without 20% human serum (not stated which), read-out: GLP1R EC50 human
[6] = cells expressing human GCGR, cAMP production, buffer with or without 20% human serum (not stated which), read-out: GCGR EC50 human

T2 sequence (P47871 26-477): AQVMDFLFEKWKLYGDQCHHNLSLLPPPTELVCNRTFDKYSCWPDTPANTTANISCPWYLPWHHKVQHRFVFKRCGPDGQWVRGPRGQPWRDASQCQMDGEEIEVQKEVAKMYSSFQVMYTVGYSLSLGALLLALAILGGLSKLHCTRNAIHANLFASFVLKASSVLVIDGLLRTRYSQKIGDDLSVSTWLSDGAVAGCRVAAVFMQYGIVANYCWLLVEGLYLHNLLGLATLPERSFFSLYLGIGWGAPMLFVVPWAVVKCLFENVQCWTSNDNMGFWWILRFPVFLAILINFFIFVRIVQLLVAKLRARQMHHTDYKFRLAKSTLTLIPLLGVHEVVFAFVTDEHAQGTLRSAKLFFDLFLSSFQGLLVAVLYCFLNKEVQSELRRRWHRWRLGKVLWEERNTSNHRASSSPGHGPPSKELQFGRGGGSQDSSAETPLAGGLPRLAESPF
T1 sequence (P43220 24-463): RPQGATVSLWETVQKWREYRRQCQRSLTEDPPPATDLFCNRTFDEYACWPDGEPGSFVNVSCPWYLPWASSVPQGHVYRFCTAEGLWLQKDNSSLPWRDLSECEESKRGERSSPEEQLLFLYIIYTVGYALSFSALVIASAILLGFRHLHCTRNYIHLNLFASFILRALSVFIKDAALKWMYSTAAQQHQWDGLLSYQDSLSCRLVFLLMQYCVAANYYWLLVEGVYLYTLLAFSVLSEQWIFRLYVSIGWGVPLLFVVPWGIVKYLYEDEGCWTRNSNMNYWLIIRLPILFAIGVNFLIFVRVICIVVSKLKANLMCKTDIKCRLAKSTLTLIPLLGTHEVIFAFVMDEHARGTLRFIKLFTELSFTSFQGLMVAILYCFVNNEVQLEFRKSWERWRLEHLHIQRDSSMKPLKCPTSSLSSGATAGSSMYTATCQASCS

| EC50 [1, 3] [nM] | hGCGR/hGLP1R (hTone) [2] | EC50 [2, 4] [nM] | EC50 [1, 5] [nM] | EC50 [2, 6] [nM] | Structure (SMILES) |
| --- | --- | --- | --- | --- | --- |
| – | <0.01 | – | > 5 | – | CC(C)C[C@H](NC(=O)[C@H](Cc1c[nH]c2ccccc12)NC(=O)[C@H](CCC(N)=O)NC(=O)[C@@H](NC(=O)[C@H](Cc1ccccc1)NC(=O)[C@H](CC(=O)O)NC(=O)[C@H](CCCCNC(=O)COCCOCCNC(=O)COCCOCCNC(=O)CC[C@H](NC(=O)CCCCCCCCCCCCCCCCC(=O)O)C(=O)O)NC(=O)[C@H](C)NC(=O)[C@H](C)NC(=O)[C@H](CCCNC(=N)N)NC(=O)[C@H](C)NC(=O)[C@](C)(CC(=O)O)NC(=O)[C@H](CC(C)C)NC(=O)[C@H](Cc1ccc(O)cc1)NC(=O)[C@H](CCCCN)NC(=O)[C@H](CO)NC(=O)[C@H](Cc1ccc(O)cc1)NC(=O)[C@H](CC(=O)O)NC(=O)[C@H](CO)NC(=O)[C@@H](NC(=O)[C@H](Cc1ccccc1)NC(=O)[C@@H](NC(=O)CNC(=O)[C@H](CCC(N)=O)NC(=O)C(C)(C)NC(=O)[C@@H](N)Cc1c[nH]cn1)[C@@H](C)O)[C@@H](C)O)C(C)C)C(=O)N[C@@H](CCS(C)(=O)=O)C(=O)N[C@@](C)(CC(=O)O)C(=O)N[C@H](C(N)=O)[C@@H](C)O [TP610] (H-H[Aib]QGTFTSDYSKYL[αMeD]ARAAK([AEEA-AEEA-γGlu-C18 diacid])DFVQWL[Met(O2)][αMeD]T-NH2; N-terminus assumed) |
| < 5 | 0.8 | < 5 | 0.26 | 0.21 | CC(C)C[C@H](NC(=O)[C@H](Cc1c[nH]c2ccccc12)NC(=O)[C@H](CCCCNC(=O)COCCOCCNC(=O)COCCOCCNC(=O)CC[C@H](NC(=O)CCCCCCCCCCCCCCC(=O)O)C(=O)O)NC(=O)[C@@H](NC(=O)[C@H](Cc1ccccc1)NC(=O)[C@H](CC(=O)O)NC(=O)[C@H](CCC(N)=O)NC(=O)[C@H](C)NC(=O)[C@H](C)NC(=O)[C@H](CCCNC(=N)N)NC(=O)C(C)(C)NC(=O)[C@H](CC(=O)O)NC(=O)[C@H](CC(C)C)NC(=O)[C@H](Cc1ccc(O)cc1)NC(=O)[C@H](CCCCN)NC(=O)[C@H](CO)NC(=O)[C@H](Cc1ccc(O)cc1)NC(=O)[C@H](CC(=O)O)NC(=O)[C@H](CO)NC(=O)[C@@H](NC(=O)[C@H](Cc1ccccc1)NC(=O)[C@@H](NC(=O)CNC(=O)[C@H](CCC(N)=O)NC(=O)C(C)(C)NC(=O)[C@@H](N)Cc1c[nH]cn1)[C@@H](C)O)[C@@H](C)O)C(C)C)C(=O)N[C@@H](CCS(C)(=O)=O)C(=O)N[C@@H](CC(=O)O)C(=O)N[C@H](C(N)=O)[C@@H](C)O [TP811] (H-H[Aib]QGTFTSDYSKYLD[Aib]RAAQDFVK([AEEA-AEEA-γGlu-C16 diacid])WL[Met(O2)]DT-NH2; N-terminus assumed) |
| < 5 | 2.2 | < 5 | 0.71 | – | CC(C)C[C@H](NC(=O)[C@H](Cc1ccc(O)cc1)NC(=O)[C@H](CCCCN)NC(=O)[C@H](CO)NC(=O)[C@H](Cc1ccc(O)cc1)NC(=O)[C@H](CC(=O)O)NC(=O)[C@H](CO)NC(=O)[C@@H](NC(=O)[C@H](Cc1ccccc1)NC(=O)[C@@H](NC(=O)CNC(=O)[C@H](CCC(N)=O)NC(=O)C(C)(C)NC(=O)[C@@H](N)Cc1c[nH]cn1)[C@@H](C)O)[C@@H](C)O)C(=O)N[C@@H](CC(=O)O)C(=O)N[C@@H](C)C(=O)N[C@@H](CCCNC(=N)N)C(=O)N[C@@H](C)C(=O)N[C@@H](C)C(=O)N[C@@H](CCCCNC(=O)COCCOCCNC(=O)COCCOCCNC(=O)CC[C@H](NC(=O)CCCCCCCCCCCCCCCCC(=O)O)C(=O)O)C(=O)N[C@@H](CCC(=O)O)C(=O)N[C@@H](Cc1ccccc1)C(=O)N[C@H](C(=O)N[C@@H](CCC(N)=O)C(=O)N[C@@H](Cc1c[nH]c2ccccc12)C(=O)N[C@@H](CC(C)C)C(=O)N[C@@H](CCS(C)(=O)=O)C(=O)N[C@@](C)(CC(=O)O)C(=O)N[C@H](C(N)=O)[C@@H](C)O)C(C)C [TP713] (H-H[Aib]QGTFTSDYSKYLDARAAK([AEEA-AEEA-γGlu-C18 diacid])EFVQWL[Met(O2)][αMeD]T-NH2; N-terminus assumed) |
| – | <0.02 | – | > 5 | 0.2 | CC(C)C[C@H](NC(=O)[C@H](Cc1ccc(O)cc1)NC(=O)[C@H](CCCCN)NC(=O)[C@H](CO)NC(=O)[C@H](Cc1ccc(O)cc1)NC(=O)[C@H](CC(=O)O)NC(=O)[C@H](CO)NC(=O)[C@@H](NC(=O)[C@H](Cc1ccccc1)NC(=O)[C@@H](NC(=O)CNC(=O)[C@H](CCC(N)=O)NC(=O)C(C)(C)NC(=O)[C@@H](N)Cc1c[nH]cn1)[C@@H](C)O)[C@@H](C)O)C(=O)N[C@@H](CC(=O)O)C(=O)N[C@@H](C)C(=O)N[C@@H](CCCNC(=N)N)C(=O)N[C@@H](C)C(=O)N[C@@H](C)C(=O)N[C@@H](CCCCNC(=O)COCCOCCNC(=O)COCCOCCNC(=O)CC[C@H](NC(=O)CCCCCCCCCCCCCCCCC(=O)O)C(=O)O)C(=O)N[C@@](C)(CC(=O)O)C(=O)N[C@@H](Cc1ccccc1)C(=O)N[C@H](C(=O)N[C@@H](CCC(N)=O)C(=O)N[C@@H](Cc1c[nH]c2ccccc12)C(=O)N[C@@H](CC(C)C)C(=O)N[C@@H](CCS(C)(=O)=O)C(=O)N[C@@](C)(CC(=O)O)C(=O)N[C@H](C(N)=O)[C@@H](C)O)C(C)C [TP611] (H-H[Aib]QGTFTSDYSKYLDARAAK([AEEA-AEEA-γGlu-C18 diacid])[αMeD]FVQWL[Met(O2)][αMeD]T-NH2) |

Second part, the compound before the results:

| Structure (SMILES) | EC50 [1, 3] [nM] | hGCGR/hGLP1R (hTone) [2] | EC50 [2, 4] [nM] | EC50 [1, 5] [nM] | EC50 [2, 6] [nM] |
| --- | --- | --- | --- | --- | --- |
| CC(C)C[C@H](NC(=O)[C@H](Cc1ccc(O)cc1)NC(=O)[C@H](CCCCN)NC(=O)[C@H](CO)NC(=O)[C@H](Cc1ccc(CNC(=O)COCCOCCNC(=O)CC[C@H](NC(=O)CCCCCCCCCCCCCCC(=O)O)C(=O)O)cc1)NC(=O)[C@H](CC(=O)O)NC(=O)[C@H](CO)NC(=O)[C@@H](NC(=O)[C@H](Cc1ccccc1)NC(=O)[C@@H](NC(=O)CNC(=O)[C@H](CCC(N)=O)NC(=O)C(C)(C)NC(=O)[C@@H](N)Cc1c[nH]cn1)[C@@H](C)O)[C@@H](C)O)C(=O)N[C@@H](CC(=O)O)C(=O)N[C@@H](C)C(=O)N[C@@H](CCCNC(=N)N)C(=O)N[C@@H](C)C(=O)N[C@@H](C)C(=O)N[C@@H](CCC(N)=O)C(=O)N[C@@H](CC(=O)O)C(=O)N[C@@H](Cc1ccccc1)C(=O)N[C@H](C(=O)N[C@@H](CCC(N)=O)C(=O)N[C@@H](Cc1c[nH]c2ccccc12)C(=O)N[C@@H](CC(C)C)C(=O)N[C@@H](CCS(C)(=O)=O)C(=O)N[C@@H](CC(=O)O)C(=O)N[C@H](C(N)=O)[C@@H](C)O)C(C)C [TP622] (H-H[Aib]QGTFTSD[Phe(4-CH2NH2)]([AEEA-γGlu-C16 diacid])SKYLDARAAQDFVQWL[Met(O2)]DT-NH2; N-terminus assumed) | < 5 | 0.4 | < 5 | – | – |
| CC(C)C[C@H](NC(=O)[C@H](Cc1ccc(O)cc1)NC(=O)[C@H](CCCCN)NC(=O)[C@H](CO)NC(=O)[C@H](Cc1ccc(O)cc1)NC(=O)[C@H](CC(=O)O)NC(=O)[C@H](CO)NC(=O)[C@H](CC(C)C)NC(=O)[C@H](Cc1ccccc1)NC(=O)[C@@H](NC(=O)CNC(=O)[C@H](CCC(N)=O)NC(=O)C(C)(C)NC(=O)[C@@H](N)Cc1c[nH]cn1)[C@@H](C)O)C(=O)N[C@@H](CC(=O)O)C(=O)N[C@@H](C)C(=O)N[C@@H](CCCNC(=N)N)C(=O)N[C@@H](C)C(=O)N[C@@H](C)C(=O)N[C@@H](CCCCNC(=O)COCCOCCNC(=O)COCCOCCNC(=O)CC[C@H](NC(=O)CCCCCCCCCCCCCCCCC(=O)O)C(=O)O)C(=O)N[C@@H](CC(=O)O)C(=O)N[C@@H](Cc1ccccc1)C(=O)N[C@H](C(=O)N[C@@H](CCC(N)=O)C(=O)N[C@@H](Cc1c[nH]c2ccccc12)C(=O)N[C@@H](CC(C)C)C(=O)N[C@@H](CCS(C)(=O)=O)C(=O)N[C@@H](CC(=O)O)C(=O)N[C@H](C(N)=O)[C@@H](C)O)C(C)C [TP596] (H-H[Aib]QGTFLSDYSKYLDARAAK([AEEA-AEEA-γGlu-C18 diacid])DFVQWL[Met(O2)]DT-NH2; N-terminus assumed) | < 5 | 0.2 | < 5 | > 20 | 0.35 |
| CC(C)C[C@H](NC(=O)[C@H](Cc1ccc(O)cc1)NC(=O)[C@H](CCCCN)NC(=O)[C@H](CO)NC(=O)[C@H](Cc1ccc(O)cc1)NC(=O)[C@H](CC(=O)O)NC(=O)[C@H](CO)NC(=O)[C@@H](NC(=O)[C@H](Cc1ccccc1)NC(=O)[C@@H](NC(=O)CNC(=O)[C@H](CCC(N)=O)NC(=O)C(C)(C)NC(=O)[C@@H](N)Cc1c[nH]cn1)[C@@H](C)O)[C@@H](C)O)C(=O)N[C@@H](CC(=O)O)C(=O)N[C@@H](CCC(=O)O)C(=O)N[C@@H](CCCNC(=N)N)C(=O)N[C@@H](C)C(=O)N[C@@H](C)C(=O)N[C@@H](CCCCN)C(=O)N[C@@H](CC(=O)O)C(=O)N[C@@H](Cc1ccccc1)C(=O)N[C@H](C(=O)N[C@@H](CCCCNC(=O)COCCOCCNC(=O)COCCOCCNC(=O)CC[C@H](NC(=O)CCCCCCCCCCCCCCCCC(=O)O)C(=O)O)C(=O)N[C@@H](Cc1c[nH]c2ccccc12)C(=O)N[C@@H](CC(C)C)C(=O)N[C@@H](CCS(C)(=O)=O)C(=O)N[C@@H](CC(=O)O)C(=O)N[C@H](C(N)=O)[C@@H](C)O)C(C)C [TP701] (H-H[Aib]QGTFTSDYSKYLDERAAKDFVK([AEEA-AEEA-γGlu-C18 diacid])WL[Met(O2)]DT-NH2) | – | – | – | 0.18 | > 4.9 |
